# ChEMBL document CHEMBL2434896, “Carbonic anhydrase inhibitors. Synthesis of heterocyclic 4-substituted pyridine-3-sulfonamide derivatives and their inhibition of the human cytosolic isozymes I and II and transmembrane tumor-associated isozymes IX and XII” (Eur J Med Chem, 2013)
# pKi: −log10 of the molar value. Calls of active or inactive are those of the source. No cut-off for these calls is given here.
# How the values were obtained:
# LOX IMVI = assay: Growth inhibition of human LOXIMVI cells at 10 uM after 48 hrs by sulforhodamine B assay; assay type: functional; conditions: read-out: GI
# U-251 = assay: Growth inhibition of human U251 cells at 10 uM after 48 hrs by sulforhodamine B assay; assay type: functional
# SF-539 = assay: Growth inhibition of human SF539 cells at 10 uM after 48 hrs by sulforhodamine B assay; assay type: functional
# SF-295 = assay: Growth inhibition of human SF295 cells at 10 uM after 48 hrs by sulforhodamine B assay; assay type: functional
# SF-268 = assay: Growth inhibition of human SF268 cells at 10 uM after 48 hrs by sulforhodamine B assay; assay type: functional; conditions: SF-268, 48 h, read-out: GI
# KM12 = assay: Growth inhibition of human KM12 cells at 10 uM after 48 hrs by sulforhodamine B assay; assay type: functional
# HCT-15 = assay: Growth inhibition of human HCT15 cells at 10 uM after 48 hrs by sulforhodamine B assay; assay type: functional
# HCT-116 = assay: Growth inhibition of human HCT116 cells at 10 uM after 48 hrs by sulforhodamine B assay; assay type: functional
# HCC 2998 = assay: Growth inhibition of human HCC2998 cells at 10 uM after 48 hrs by sulforhodamine B assay; assay type: functional
# COLO 205 = assay: Growth inhibition of human COLO205 cells at 10 uM after 48 hrs by sulforhodamine B assay; assay type: functional
# NCI-H522 = assay: Growth inhibition of human NCI-H522 cells at 10 uM after 48 hrs by sulforhodamine B assay; assay type: functional; conditions: NCI-H522, 48 h, read-out: GI
# NCI-H460 = assay: Growth inhibition of human NCI-H460 cells at 10 uM after 48 hrs by sulforhodamine B assay; assay type: functional
# NCI-H322M = assay: Growth inhibition of human NCI-H322M cells at 10 uM after 48 hrs by sulforhodamine B assay; assay type: functional
# HOP-62 = assay: Growth inhibition of human HOP62 cells at 10 uM after 48 hrs by sulforhodamine B assay; assay type: functional
# A549 = assay: Growth inhibition of human A549/ATCC cells at 10 uM after 48 hrs by sulforhodamine B assay; assay type: functional
# SR = assay: Growth inhibition of human SR cells at 10 uM after 48 hrs by sulforhodamine B assay; assay type: functional; conditions: read-out: GI
# RPMI-8226 = assay: Growth inhibition of human RPMI8226 cells at 10 uM after 48 hrs by sulforhodamine B assay; assay type: functional
# MOLT-4 = assay: Growth inhibition of human MOLT4 cells at 10 uM after 48 hrs by sulforhodamine B assay; assay type: functional; conditions: MOLT-4, 48 h, read-out: GI
# K562 = assay: Growth inhibition of human K562 cells at 10 uM after 48 hrs by sulforhodamine B assay; assay type: functional
# HL-60(TB) = assay: Growth inhibition of human HL-60(TB) cells at 10 uM after 48 hrs by sulforhodamine B assay; assay type: functional; conditions: HL-60, 48 h, read-out: GI
# CCRF-CEM = assay: Growth inhibition of human CCRF-CEM cells at 10 uM after 48 hrs by sulforhodamine B assay; assay type: functional; conditions: read-out: GI
# Carbonic anhydrase 9 = Carbonic anhydrase 9 (Homo sapiens, UniProt Q16790); assay: Inhibition of human carbonic anhydrase 9 after 15 mins by stopped flow CO2 hydration assay
# MDA-MB-468 = assay: Growth inhibition of human MDA-MB-468 cells at 10 uM after 48 hrs by sulforhodamine B assay; assay type: functional
# T47D = assay: Growth inhibition of human T47D cells at 10 uM after 48 hrs by sulforhodamine B assay; assay type: functional
# BT-549 = assay: Growth inhibition of human BT549 cells at 10 uM after 48 hrs by sulforhodamine B assay; assay type: functional; conditions: BT-549, 48 h, read-out: GI
# Hs-578T = assay: Growth inhibition of human Hs 578T cells at 10 uM after 48 hrs by sulforhodamine B assay; assay type: functional
# MDA-MB-231 = assay: Growth inhibition of human MDA-MB-231 cells at 10 uM after 48 hrs by sulforhodamine B assay; assay type: functional
# DU-145 = assay: Growth inhibition of human DU145 cells at 10 uM after 48 hrs by sulforhodamine B assay; assay type: functional
# PC-3 = assay: Growth inhibition of human PC3 cells at 10 uM after 48 hrs by sulforhodamine B assay; assay type: functional
# UO-31 = assay: Growth inhibition of human UO31 cells at 10 uM after 48 hrs by sulforhodamine B assay; assay type: functional; conditions: UO-31, 48 h, read-out: GI
# TK-10 = assay: Growth inhibition of human TK10 cells at 10 uM after 48 hrs by sulforhodamine B assay; assay type: functional
# RXF 393 = assay: Growth inhibition of human RXF393 cells at 10 uM after 48 hrs by sulforhodamine B assay; assay type: functional
# CAKI-1 = assay: Growth inhibition of human CAKI-1 cells at 10 uM after 48 hrs by sulforhodamine B assay; assay type: functional
# ACHN = assay: Growth inhibition of human ACHN cells at 10 uM after 48 hrs by sulforhodamine B assay; assay type: functional
# SK-OV-3 = assay: Growth inhibition of human SKOV3 cells at 10 uM after 48 hrs by sulforhodamine B assay; assay type: functional
# NCI/ADR-RES = assay: Growth inhibition of human NCI-ADR-RES cells at 10 uM after 48 hrs by sulforhodamine B assay; assay type: functional
# OVCAR-5 = assay: Growth inhibition of human OVCAR5 cells at 10 uM after 48 hrs by sulforhodamine B assay; assay type: functional
# OVCAR-4 = assay: Growth inhibition of human OVCAR4 cells at 10 uM after 48 hrs by sulforhodamine B assay; assay type: functional
# OVCAR-3 = assay: Growth inhibition of human OVCAR3 cells at 10 uM after 48 hrs by sulforhodamine B assay; assay type: functional
# IGROV-1 = assay: Growth inhibition of human IGROV1 cells at 10 uM after 48 hrs by sulforhodamine B assay; assay type: functional
# UACC-62 = assay: Growth inhibition of human UACC62 cells at 10 uM after 48 hrs by sulforhodamine B assay; assay type: functional
# SK-MEL-5 = assay: Growth inhibition of human SK-MEL-5 cells at 10 uM after 48 hrs by sulforhodamine B assay; assay type: functional
# SK-MEL-28 = assay: Growth inhibition of human SK-MEL-28 cells at 10 uM after 48 hrs by sulforhodamine B assay; assay type: functional, cell-based
# SK-MEL-2 = assay: Growth inhibition of human SK-MEL-2 cells at 10 uM after 48 hrs by sulforhodamine B assay; assay type: functional
# MDA-MB-435 = assay: Growth inhibition of human MDA-MB-435 cells at 10 uM after 48 hrs by sulforhodamine B assay; assay type: functional
# M14 = assay: Growth inhibition of human M14 cells at 10 uM after 48 hrs by sulforhodamine B assay; assay type: functional
compound,measurement,setting,value
NS(=O)(=O)c1cnccc1N1CCN(c2ncccn2)CC1,inhibition of growth at 10 µM,LOX IMVI,4%
same,growth inhibition (GI),U-251,inactive
same,growth inhibition (GI),SF-539,inactive
same,growth inhibition (GI),SF-295,inactive
same,inhibition of growth at 10 µM,SF-268,5%
same,growth inhibition (GI),KM12,inactive
same,growth inhibition (GI),HCT-15,inactive
same,growth inhibition (GI),HCT-116,inactive
same,growth inhibition (GI),HCC 2998,inactive
same,growth inhibition (GI),COLO 205,inactive
same,inhibition of growth at 10 µM,NCI-H522,2%
same,growth inhibition (GI),NCI-H460,inactive
same,growth inhibition (GI),NCI-H322M,inactive
same,growth inhibition (GI),HOP-62,inactive
same,growth inhibition (GI),A549,inactive
same,inhibition of growth at 10 µM,SR,17%
same,growth inhibition (GI),RPMI-8226,inactive
same,inhibition of growth at 10 µM,MOLT-4,6%
same,growth inhibition (GI),K562,inactive
same,inhibition of growth at 10 µM,HL-60(TB),9%
same,inhibition of growth at 10 µM,CCRF-CEM,10%
same,pKi,Carbonic anhydrase 9,7.11
same,growth inhibition (GI),MDA-MB-468,inactive
same,growth inhibition (GI),T47D,inactive
same,inhibition of growth at 10 µM,BT-549,7%
same,growth inhibition (GI),Hs-578T,inactive
same,growth inhibition (GI),MDA-MB-231,inactive
same,growth inhibition (GI),DU-145,inactive
same,growth inhibition (GI),PC-3,inactive
same,inhibition of growth at 10 µM,UO-31,15%
same,growth inhibition (GI),TK-10,inactive
same,growth inhibition (GI),RXF 393,inactive
same,growth inhibition (GI),CAKI-1,inactive
same,growth inhibition (GI),ACHN,inactive
same,growth inhibition (GI),SK-OV-3,inactive
same,growth inhibition (GI),NCI/ADR-RES,inactive
same,growth inhibition (GI),OVCAR-5,inactive
same,growth inhibition (GI),OVCAR-4,inactive
same,growth inhibition (GI),OVCAR-3,inactive
same,growth inhibition (GI),IGROV-1,inactive
same,growth inhibition (GI),UACC-62,inactive
same,growth inhibition (GI),SK-MEL-5,inactive
same,growth inhibition (GI),SK-MEL-28,inactive
same,growth inhibition (GI),SK-MEL-2,inactive
same,growth inhibition (GI),MDA-MB-435,inactive
same,growth inhibition (GI),M14,inactive
